Laboratory results as given in patent US20040142888A1, “Modulators of RabGGT and methods of use thereof” (priority 2002, published 2004).
Read-outs that look alike come from different tables or passages of the source.

How the values were obtained:
[1] = molecular target: Farnesyl Transferase (FT) (Homo sapiens, UniProt P49354+P49356); assay: Biochemical assay for inhibition of farnesyl transferase (FT)
Protocol: Biochemical assays for inhibition of FT were performed as described by Mann et al. (1995, Drug Dev. Res. 34: 121) with the modifications described by Ding et al. (1999, J. Med. Chem., 42:5241)

[2] = system: HCT-116 human colon tumor cells; assay: Compound-induced apoptosis in HCT-116 human colon tumor cells (microscopy for morphological markers); format: cell-based
Protocol: HCT-116 human colon tumor cells obtained from the American Type Culture Collection (ATCC) were grown in McCoy's 5A culture medium with 10% heat inactivated FBS, 1× penicillin/streptomycin, and 25 mM HEPES, in an incubator maintained at 37° C. with CO2 at 6-7% and humidity at 95%. Cells were treated with compounds using a dose range from 0.04 μM to 100 μM. After 48 hours they were examined by microscopy for signs of cell rounding, vaccuolation, and nuclear condensation. These are morphological markers associated with apoptosis, and are consistent with results obtained by performing an assay for nucleosomal DNA, or a TdT-mediated dUTP nick end labeling (TUNEL) assay.
The concentrations cited are the minimal concentration required to induce these morphological changes in 50% of the treated cells.

rat RabGGT = molecular target: T1, rat RabGGT (Rattus norvegicus, UniProt Q08602+Q08603); assay: RabGGT filter binding assay: transfer of (3H)geranylgeranyl from 3H-GGPP to recombinant Rab3A; format: biochemical; details: for IC90/IC50: RabGGT inhibition; for RabGGT inhibition: rat RabGGT enzyme
T1 construct: purchased Calbiochem 345855; host or cells: Sf9/baculovirus
T1 sequence (Q08602 1-567): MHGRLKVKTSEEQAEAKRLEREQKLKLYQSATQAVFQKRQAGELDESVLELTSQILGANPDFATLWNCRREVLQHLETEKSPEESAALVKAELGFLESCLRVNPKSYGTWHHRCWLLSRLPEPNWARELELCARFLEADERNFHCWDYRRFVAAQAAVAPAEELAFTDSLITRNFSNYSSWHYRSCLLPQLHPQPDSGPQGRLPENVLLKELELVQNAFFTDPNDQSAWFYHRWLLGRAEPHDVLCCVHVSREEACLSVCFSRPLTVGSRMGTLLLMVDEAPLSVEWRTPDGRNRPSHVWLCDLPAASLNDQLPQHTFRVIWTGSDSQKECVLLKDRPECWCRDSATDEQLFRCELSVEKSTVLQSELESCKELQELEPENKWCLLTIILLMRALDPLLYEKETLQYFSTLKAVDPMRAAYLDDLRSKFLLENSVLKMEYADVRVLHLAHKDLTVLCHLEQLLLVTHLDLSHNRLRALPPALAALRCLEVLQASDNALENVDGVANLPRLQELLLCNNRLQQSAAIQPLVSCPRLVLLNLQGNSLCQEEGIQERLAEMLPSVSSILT
T1 sequence (Q08603 1-331): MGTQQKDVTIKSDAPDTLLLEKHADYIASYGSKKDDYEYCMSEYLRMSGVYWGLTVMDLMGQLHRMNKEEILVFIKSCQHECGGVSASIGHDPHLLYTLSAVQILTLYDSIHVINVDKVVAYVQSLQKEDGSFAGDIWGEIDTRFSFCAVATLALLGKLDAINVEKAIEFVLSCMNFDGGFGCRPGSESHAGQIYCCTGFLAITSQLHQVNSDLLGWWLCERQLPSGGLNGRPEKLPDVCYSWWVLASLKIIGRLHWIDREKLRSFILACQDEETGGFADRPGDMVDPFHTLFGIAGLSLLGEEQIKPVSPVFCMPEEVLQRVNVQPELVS
Excerpt: The effect of compounds 7A through 7T on RabGGT activity was quantified using a filter binding assay that measures the transfer of (3H) geranylgeranyl groups (GG) from all-trans-(3H)geranylgeranyl pyrophosphate (3H-GGPP) to recombinant Rab3A protein (Shen & Seabra, 1996, JBC, 271 :3692; Armstrong et al., 1996, Methods in Enzymology 257:30). Modifications to published protocols are noted explicitly below.
Recombinant rat RabGGT, expressed using the Sf9/baculovirus system, was purchased from Calbiochem (cat. no. 345855). Recombinant unprenylated human Rab3A was obtained from Panvera.(cat. no. P2173). Human REβ-1, expressed in Sf9 cells, was obtained from Calbiochem (cat. no. 554000). Tritium labeled geranylgeranyl pyrophosphate was purchased from Amersham Pharmacia Biotech (15 Ci/mmol). Unlabeled GGPP was purchased from Sigma (cat. no. G-6025).
The reaction buffer contained 50 mM HEPES pH7.4, 5 mM MgCl2, 1 mM DTT, 1 mM Nβ-40. Solutions of RabGGT, Rab3A, REP-1, and GGPP were prepared in this reaction buffer. Final protein concentrations in the reaction mixture were modified from the published protocols, with the standard reaction mixture containing 2 μM Rab3A, 0.2 μM REP-1, 5 μM unlabeled GGPP, 0.5 μM labeled GGPP, and 10-50 nM RabGGT in a total volume of 20 μl. The specific activity of (3H)GGPP used in the assay was 3000 dpm/pmol.
Compounds were prepared as 50 mM stocks in DMSO and diluted to give an appropriate concentration for the assay as a 20% DMSO stock. 2 μl of the diluted compound stock was added to a 20 μl reaction to give a final DMSO concentration of 2% in the assay.
The order of addition of reagents was altered from the published protocols. Reaction mixtures were prepared by sequentially adding Rab3A and REP-1 proteins to the reaction buffer, followed by compound and RabGGT enzyme to a volume of 18 μl. Reactions were initiated by the addition of 2 μl of a solution that contained unlabeled and labeled GGPP. After a 30 minute incubation at 37° C., 1 ml of stop solution (1 volume of concentrated HCl acid with 9 volumes of ethanol) was added and mixed. The solution was then incubated at room temperature for 1 hour to completely precipitate proteins.
The precipitate was collected by vacuum filtration using a vacuum filtration manifold (Millipore model 1225) onto 25 mm GF/A filters (Whatman) that were prewetted with ethanol. The tubes were rinsed twice with 1 ml ethanol which was also poured over the filters. Each filter was subsequently washed three times with 2 mls of ethanol per wash, dried under vacuum, and then put in scintillation vials. Four milliliters of scintillation fluid was added and the radioactivity was quantified on a scintillation counter. Several types of blank reactions were conducted including withholding the enzyme, the substrate, or the accessory protein REP-1, or replacing the compound solution with a 20% DMSO solution. For the substrate titration experiment, the equimolar amounts of Rab3A and REP-1 were mixed and preincubated for 30 min at room temperature before addition of the enzyme.
The data was analyzed by non-linear regression analysis methods using the program PRIZM (GraphPad Software, Inc.). Inhibition constants were obtained by analyzing the data using the one site competition equation provided by the software. FIG. 7 presents a typical data series obtained for compound 7B using these methods.

HCT116 cells = assay: 3H-thymidine incorporation (proliferation) assay in HCT116 cells after siRNA treatment against RabGGT subunits; format: cell-based, human; design: concentration or dose not given beside the values; details: 72 hours after siRNA/Lipofectamine 2000 treatment, average of three replicates
Protocol: HCT-116 human colon tumor cells obtained from the ATCC were grown in RPMI culture medium supplemented with 10% heat inactivated FBS, 1× penicillin/streptomycin, and 25 mM HEPES, in an incubator maintained at 37° C. with CO2 at 6% and humidity at 95%. HCT116 cells were plated in 96 well plates at 2000 cells/100 μl media per well and incubated for 24 hours before RNAi treatment. For treatment, a 2× solution of Lipofectamine 2000/siRNA complexes was generated for each individual siRNA as follows. The siRNA oligonucleotides (Xeragon; Huntsville Ala.) were diluted to a final concentration of 1 μM in Optimem serum-free media (Invitrogen; Carlsbad, Calif.) and incubated for 5 minutes at room temperature. The Lipofectamine 2000 reagent (Invitrogen; Carlsbad, Calif.) was diluted to 10 μg/ml in Optimem serum-free media and incubated for 5 minutes at room temperature. Equal volumes of the 1 μM siRNA oligonucleotides and the 10 μg/ml Lipofectamine 2000 were mixed together, giving a 5× stock of siRNA/Lipofectamine 2000 complexes. After incubation for 20 minutes at room temperature, 1.5 volumes of RPMI medium containing 10% heat inactivated FBS was added to the 5× stock, resulting in a 2× stock of siRNA/Lipofectamine 2000 complexes. For RNAi treatment, 100 μof the 2× stock of siRNA/Lipofectamine 2000 complexes was added to each well containing HCT116 cells, to give a final concentration of 1× siRNA/Lipofectamine 2000 complexes. Cells were incubated for 72 hours prior to the proliferation assay. Three replicates were performed for each siRNA treatment.
The effect of RNAi treatment directed against RabGGT subunits on cellular proliferation was assayed using a 3H-thymidine incorporation assay. The principle of this assay is as follows: During S-phase of the cell cycle, cells incorporate thymidine into the new strand of genomic DNA. Tritiated thymidine can be added to the culture medium and will be incorporated into genomic DNA in proportion to the number of rounds of DNA synthesis that occur. Incorporation can be quantified following lysis of the cells and removal of unincorporated nucleotides. RNAi-treated cells prepared as described above were assayed for 3H-thymidine uptake as follows. The cells were pulsed with 3H-thymidine by addition of 20 μl of a 44 μCi/ml solution of 3H-thymidine in RPMI to each well, to obtain a final concentration of 3H-thymidine of 4 μCi/ml. After incubation for 3 h at 37° C., the medium was removed and 50 μl of 0.25% trypsin in phosphate buffered saline (140 mM NaCl, 2.7 mM KCl, 10 mM Na2HPO4 and 1.8 mM KH2PO4, pH 7.4) was added. After 10 minutes, the contents of the wells were harvested onto a 96-well GF/C filter plate (Whatman; Clifton N.J.) using a Hewlett Packard Filtermate. The filter plate was washed 10 times with distilled water, then left to dry overnight. After the addition of 50 μl of Microscint-20 scintillation fluid (Perkin Elmer; Boston, Mass.) per well, the filter plates were sealed and the amount of radioactivity retained on the filter was determined by scintillation counting. The average of the three replicate samples is reported.

[3] = HCT-116, 48 h, HCT116 cells, 48 hours, minimal concentration inducing apoptotic morphological changes in 50% of treated cells, read-out: 50% APOPTOTIC
[4] = HCT-116, minimum concentration required to achieve apoptosis of 50% of the HCT116 cells (Table 7), read-out: HCT116 50% apoptosis
[5] = HCT-116, minimum concentration required to achieve apoptosis of 50% of the HCT116 cells (Table 8), read-out: HCT116 50% apoptosis
[6] = recombinant rat RabGGT, Rab3A, REP-1, 30 minute at 37° C.

Molecule	IC50 [1]	IC90 [1]	EC50 [2, 3]	EC50 [2, 4]	EC50 [2, 5]	IC90/IC50 (rat RabGGT)	IC50 (rat RabGGT; Table 7)	RabGGT inhibition (rat RabGGT)	IC50 (rat RabGGT; [6])	IC90 (rat RabGGT; [6])	IC90 (rat RabGGT; Table 7)	3H-thy incorp. % of control (HCT116 cells)
Cn1cncc1CN1CC(N(CC(=O)OC(C)(C)C)S(=O)(=O)c2ccccn2)Cc2cc(C#N)ccc21 (stereo not drawn) [Compound 7R]	1.5 nM	9 nM	30000 nM	30000 nM	30000 nM	19	541 nM	weaker inhibitors	541 nM	10100 nM		
Cn1cncc1CN1CC(NS(=O)(=O)c2ccccn2)Cc2cc(C#N)ccc21 (stereo not drawn) [Compound 7S]	15.5 nM	255 nM	50000 nM	50000 nM	50000 nM	19	73 nM		73 nM	1400 nM		
Beta-3: siRNA against human RabGGT-beta, coding bases 812-835, SEQ ID NO:11 / NO:12 (chain 1 GAUGAAGAAACGGGGGGAUTT; chain 2 AUCCCCCCGUUUCUUCAUCTT; chemistry not given here)												36%
Alpha-2: siRNA against human RabGGT-alpha, coding bases 628-651, SEQ ID NO:03 / NO:04 (chain 1 AGAGCUGGAGCUGGUGCAGTT; chain 2 CUGCACCAGCUCCAGCUCUTT; chemistry not given here)												17%
Cc1nc(CN(C2Cc3cc(C#N)ccc3N(Cc3cncn3C)C2)S(=O)(=O)c2ccccn2)cs1 (stereo not drawn) [Compound 7T]	3.7 nM	48 nM	90000 nM	90000 nM	90000 nM	>10	1430 nM	weaker inhibitors	1430 nM	> 15000 nM	> 15000 nM	

More lines, main results first:

IC50 [1]	IC90 [1]	EC50 [2, 3]	EC50 [2, 4]	EC50 [2, 5]	IC90/IC50 (rat RabGGT)	IC50 (rat RabGGT; Table 7)	RabGGT inhibition (rat RabGGT)	IC50 (rat RabGGT; [6])	IC90 (rat RabGGT; [6])	IC90 (rat RabGGT; Table 7)	Molecule	3H-thy incorp. % of control (HCT116 cells)
0.7 nM	4 nM	25000 nM	25000 nM	25000 nM		84 nM		84 nM	2160 nM		Cn1cncc1CN1CC(N(Cc2ccsc2)S(=O)(=O)c2ccccn2)Cc2cc(C#N)ccc21 (stereo not drawn) [Compound 7P]	
1.4 nM	8 nM	10000 nM	10000 nM	10000 nM	19	58 nM		58 nM	1120 nM		C=C(C)CN(C1Cc2cc(C#N)ccc2N(Cc2cncn2C)C1)S(=O)(=O)N1CC=CC1 (stereo not drawn) [Compound 7O]	
0.6 nM	6 nM	30000 nM	30000 nM	30000 nM		47 nM		47 nM	2300 nM		Cn1cnc(S(=O)(=O)N(Cc2ccsc2)C2Cc3cc(C#N)ccc3N(Cc3cncn3C)C2)c1 (stereo not drawn) [Compound 7Q]	
0.7 nM	9 nM	3700 nM	3300 nM	3300 nM	12	25 nM		25 nM	309 nM		Cn1cc(S(=O)(=O)N(Cc2ccsc2)C2Cc3cc(C#N)ccc3N(Cc3cncn3C)C2)cn1 (stereo not drawn) [Compound 7N]	
